From ChEMBL document CHEMBL1201862, “PubChem BioAssay data set” (2004)
Values belong to the molecule of their own block, whether it stands above or below them. Calls of active or inactive are those of the source. Rule as the data show it, for most assays here: actives have a measured IC50 and inactives only a lower limit.

Tests used:
[1] = biological target: T1, Ubiquitin-conjugating enzyme E2 N (Homo sapiens, UniProt P61088); format: functional
T1 sequence (P61088 whole entry): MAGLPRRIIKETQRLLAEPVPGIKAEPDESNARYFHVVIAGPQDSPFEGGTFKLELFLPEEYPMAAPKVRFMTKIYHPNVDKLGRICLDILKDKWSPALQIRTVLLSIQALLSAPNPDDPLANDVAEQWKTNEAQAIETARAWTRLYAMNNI

Bcl-2-related protein A1 = biological target: T2, Bcl-2-related protein A1 (Mus musculus, UniProt Q07440); format: functional;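 also: confirmatory dose–response counterscreen on Bfl-1, used to check hits from a UBC13 polyubiquitin inhibitor campaign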
T2 sequence (Q07440 whole entry): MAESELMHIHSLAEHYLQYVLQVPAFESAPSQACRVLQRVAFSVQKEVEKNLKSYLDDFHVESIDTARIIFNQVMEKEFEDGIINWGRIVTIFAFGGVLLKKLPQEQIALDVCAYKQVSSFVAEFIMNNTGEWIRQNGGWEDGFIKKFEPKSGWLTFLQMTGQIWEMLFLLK

[2] = biological target: T3, Apoptotic protease-activating factor 1 (Homo sapiens, UniProt O14727); format: functional
T3 sequence (O14727 whole entry): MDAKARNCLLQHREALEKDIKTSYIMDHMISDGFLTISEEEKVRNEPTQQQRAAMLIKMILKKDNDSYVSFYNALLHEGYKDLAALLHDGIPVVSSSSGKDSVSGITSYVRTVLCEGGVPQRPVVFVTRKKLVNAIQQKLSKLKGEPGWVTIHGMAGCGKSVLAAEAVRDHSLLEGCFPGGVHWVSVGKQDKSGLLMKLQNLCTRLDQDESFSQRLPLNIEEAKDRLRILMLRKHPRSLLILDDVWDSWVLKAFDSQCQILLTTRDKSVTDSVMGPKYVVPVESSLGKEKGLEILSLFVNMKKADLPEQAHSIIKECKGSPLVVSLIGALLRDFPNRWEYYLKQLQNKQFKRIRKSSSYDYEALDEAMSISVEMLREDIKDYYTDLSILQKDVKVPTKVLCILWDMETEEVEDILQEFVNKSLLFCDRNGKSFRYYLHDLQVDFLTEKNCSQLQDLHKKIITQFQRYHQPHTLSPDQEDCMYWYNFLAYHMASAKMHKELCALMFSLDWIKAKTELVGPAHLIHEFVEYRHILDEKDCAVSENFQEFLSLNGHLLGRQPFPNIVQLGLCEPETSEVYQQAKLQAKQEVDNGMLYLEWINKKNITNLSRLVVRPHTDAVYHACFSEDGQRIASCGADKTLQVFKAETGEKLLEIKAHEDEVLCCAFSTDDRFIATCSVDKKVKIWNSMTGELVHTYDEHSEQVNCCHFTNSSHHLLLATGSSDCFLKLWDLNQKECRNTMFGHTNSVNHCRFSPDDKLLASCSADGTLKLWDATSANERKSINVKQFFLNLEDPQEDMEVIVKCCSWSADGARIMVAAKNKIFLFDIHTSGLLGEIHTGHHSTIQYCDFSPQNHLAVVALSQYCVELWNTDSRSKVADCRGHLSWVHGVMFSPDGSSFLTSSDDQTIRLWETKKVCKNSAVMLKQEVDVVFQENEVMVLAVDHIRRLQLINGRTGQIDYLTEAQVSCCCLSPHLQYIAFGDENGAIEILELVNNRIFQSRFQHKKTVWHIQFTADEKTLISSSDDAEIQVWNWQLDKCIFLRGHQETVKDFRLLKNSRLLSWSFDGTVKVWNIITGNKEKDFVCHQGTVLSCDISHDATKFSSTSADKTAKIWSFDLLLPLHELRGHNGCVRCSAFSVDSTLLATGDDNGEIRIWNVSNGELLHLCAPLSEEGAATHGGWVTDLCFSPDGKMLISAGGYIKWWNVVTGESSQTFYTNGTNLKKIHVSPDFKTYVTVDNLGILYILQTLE

[3] = biological target: T1, Ubiquitin-conjugating enzyme E2 N; format: functional; remark: listed apart in the source
Tumor necrosis factor = Tumor necrosis factor (Homo sapiens, UniProt P01375); test: TNFa-triggered NF-kB activation inhibitors, SAR follow-up, cell-based, revised (AID 2337); format: functional
[4] = biological target: Nucleotide-binding oligomerization domain-containing protein 1 (Homo sapiens, UniProt Q9Y239); test: NOD1 signaling inhibitors, SAR follow-up, revised (AID 2333); format: functional
[5] = biological target: Nucleotide-binding oligomerization domain-containing protein 2 (Homo sapiens, UniProt Q9HC29); test: PubChem AID 2334; format: functional
HEK293 = test: cells; settings: Homo sapiens;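 also: cells exposed to compound for 14 hours overnight before viability readout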
[6] = biological target: T4, E3 ubiquitin-protein ligase XIAP (Homo sapiens, UniProt P98170); test: XIAP antagonists, biochemical, IAP family, fluorescence polarization (AID 1018); format: functional
[7] = biological target: T4, E3 ubiquitin-protein ligase XIAP; test: Counter Screen using XIAP-Bir3 for Chemical Antagonists of Bir1/2 domains of IAP-family anti-apoptotic proteins. [Related pubchem assays (depositor defined):AID1018, AID1449, AID1514, AID1638, AID1749, AID1750, AID488957, AID488963]
[8] = inhibitors of Vif binding to APOBEC3G peptide, primary screen, biochemical, TR-FRET, GST-Vif 1-94, biotin-A3G peptide, dose response retest (AID 1117319); format: functional;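 also: TR-FRET signal of purified GST-Vif binding a biotinylated A3G peptide; inhibitors lower the FRET signal by blocking Vif and A3G binding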

T4 sequence (P98170 whole entry): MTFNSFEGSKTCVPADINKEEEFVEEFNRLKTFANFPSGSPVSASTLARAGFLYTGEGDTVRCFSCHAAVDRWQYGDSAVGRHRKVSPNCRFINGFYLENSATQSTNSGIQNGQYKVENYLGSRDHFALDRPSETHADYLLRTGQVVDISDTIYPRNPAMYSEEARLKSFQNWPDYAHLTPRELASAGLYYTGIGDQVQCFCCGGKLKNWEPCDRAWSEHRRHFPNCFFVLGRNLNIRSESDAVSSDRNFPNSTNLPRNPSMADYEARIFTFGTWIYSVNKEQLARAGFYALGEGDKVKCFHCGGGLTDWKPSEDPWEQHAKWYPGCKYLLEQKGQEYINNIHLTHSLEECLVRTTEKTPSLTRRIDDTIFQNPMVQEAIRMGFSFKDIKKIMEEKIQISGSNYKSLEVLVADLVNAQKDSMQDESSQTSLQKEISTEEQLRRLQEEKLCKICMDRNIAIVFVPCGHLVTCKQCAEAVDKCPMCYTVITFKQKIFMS
Sequence of Nucleotide-binding oligomerization domain-containing protein 2 (Q9HC29 whole entry, the tested form may be a part): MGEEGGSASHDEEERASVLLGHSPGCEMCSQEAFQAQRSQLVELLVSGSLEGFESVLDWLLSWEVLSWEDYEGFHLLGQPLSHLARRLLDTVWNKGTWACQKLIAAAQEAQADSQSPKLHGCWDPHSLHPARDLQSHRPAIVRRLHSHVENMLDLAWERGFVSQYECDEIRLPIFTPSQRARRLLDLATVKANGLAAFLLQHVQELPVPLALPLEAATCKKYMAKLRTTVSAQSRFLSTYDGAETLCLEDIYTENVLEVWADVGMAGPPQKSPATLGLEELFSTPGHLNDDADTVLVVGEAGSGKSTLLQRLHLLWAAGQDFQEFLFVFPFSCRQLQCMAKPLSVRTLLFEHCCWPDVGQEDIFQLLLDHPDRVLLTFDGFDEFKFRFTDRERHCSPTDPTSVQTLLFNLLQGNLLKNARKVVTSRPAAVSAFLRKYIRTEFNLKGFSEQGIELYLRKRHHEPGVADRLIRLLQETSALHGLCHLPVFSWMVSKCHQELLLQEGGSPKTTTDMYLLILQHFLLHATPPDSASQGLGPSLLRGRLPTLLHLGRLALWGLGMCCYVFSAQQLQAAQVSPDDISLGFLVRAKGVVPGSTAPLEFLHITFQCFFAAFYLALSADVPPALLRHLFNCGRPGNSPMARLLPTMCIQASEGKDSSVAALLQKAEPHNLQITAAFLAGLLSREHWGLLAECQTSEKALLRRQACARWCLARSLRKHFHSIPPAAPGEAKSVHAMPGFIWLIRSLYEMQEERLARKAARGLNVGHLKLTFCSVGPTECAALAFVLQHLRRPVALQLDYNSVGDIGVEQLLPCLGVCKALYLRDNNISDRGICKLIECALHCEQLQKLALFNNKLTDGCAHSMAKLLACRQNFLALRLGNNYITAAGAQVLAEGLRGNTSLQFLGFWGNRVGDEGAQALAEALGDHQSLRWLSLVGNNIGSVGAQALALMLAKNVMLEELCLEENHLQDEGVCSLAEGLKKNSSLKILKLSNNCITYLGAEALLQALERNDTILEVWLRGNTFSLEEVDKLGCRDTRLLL
Sequence of Tumor necrosis factor (P01375 whole entry, the tested form may be a part): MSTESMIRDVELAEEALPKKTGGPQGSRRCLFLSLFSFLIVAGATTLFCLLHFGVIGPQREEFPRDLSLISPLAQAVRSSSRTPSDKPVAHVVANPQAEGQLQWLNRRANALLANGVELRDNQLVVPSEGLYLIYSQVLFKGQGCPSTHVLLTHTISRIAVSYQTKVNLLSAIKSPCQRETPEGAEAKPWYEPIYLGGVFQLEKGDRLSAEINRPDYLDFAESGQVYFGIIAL
Sequence of Nucleotide-binding oligomerization domain-containing protein 1 (Q9Y239 whole entry, the tested form may be a part): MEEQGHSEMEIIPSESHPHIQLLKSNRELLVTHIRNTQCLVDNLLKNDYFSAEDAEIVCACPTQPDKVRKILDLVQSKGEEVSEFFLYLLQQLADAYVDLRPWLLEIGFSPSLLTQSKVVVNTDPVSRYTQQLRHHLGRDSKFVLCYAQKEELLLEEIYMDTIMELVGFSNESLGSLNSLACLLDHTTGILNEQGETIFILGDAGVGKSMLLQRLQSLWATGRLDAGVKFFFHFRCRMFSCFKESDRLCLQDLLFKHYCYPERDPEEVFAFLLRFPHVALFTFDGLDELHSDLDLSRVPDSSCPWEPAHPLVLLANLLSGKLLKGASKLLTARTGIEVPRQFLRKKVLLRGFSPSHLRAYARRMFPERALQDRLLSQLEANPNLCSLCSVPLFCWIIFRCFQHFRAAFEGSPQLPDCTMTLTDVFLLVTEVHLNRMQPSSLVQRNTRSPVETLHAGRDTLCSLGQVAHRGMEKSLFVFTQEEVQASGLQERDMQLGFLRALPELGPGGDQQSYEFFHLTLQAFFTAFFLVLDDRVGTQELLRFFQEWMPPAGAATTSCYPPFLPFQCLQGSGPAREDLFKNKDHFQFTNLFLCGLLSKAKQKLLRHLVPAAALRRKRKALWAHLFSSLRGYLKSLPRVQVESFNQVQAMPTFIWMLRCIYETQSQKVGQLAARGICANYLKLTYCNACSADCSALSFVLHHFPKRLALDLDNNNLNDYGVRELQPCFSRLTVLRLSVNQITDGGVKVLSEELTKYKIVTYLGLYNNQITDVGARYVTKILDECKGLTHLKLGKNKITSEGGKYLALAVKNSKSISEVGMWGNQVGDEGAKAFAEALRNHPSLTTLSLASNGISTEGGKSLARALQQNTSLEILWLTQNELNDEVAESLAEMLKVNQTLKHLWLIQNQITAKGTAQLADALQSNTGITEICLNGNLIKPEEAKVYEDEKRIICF

IC50 [1]: 4.54 µM (active) | IC50 (Bcl-2-related protein A1): > 20 µM (inactive) | IC50 [2]: > 100 µM (inactive) | IC50 [3]: 6.59 µM (active)
SMILES: COc1ccc(C(CNC(=O)c2ccc(S(=O)(=O)Nc3ccccc3F)cc2)N(C)C)cc1 (stereo unspecified)

SMILES: Cn1nccc1C(=O)N[C@@H]1CCCc2c1cnn2-c1ccccc1F
IC50 (Tumor necrosis factor): > 20 µM (inactive) | IC50 [4]: 18.7 µM (active) | IC50 [5]: > 20 µM (inactive) | IC50 (HEK293): > 20 µM (inactive)

IC50 [6]: > 100 µM (not active) | IC50 [7]: > 100 µM (inactive) | IC50 [8]: > 100 µM (active)
SMILES: O=C(O)CN1C(=O)COc2cc(S(=O)(=O)N3CCCC3)ccc21
